The values that follow are results of earlier work, collected in patent publication EP2361606A2, “Oral and tooth care and cleaning agents with ethyl lauroyl arginate” (Henkel AG & Co. KGaA, priority 2010, dated 2011).

Where two headings read alike, the source gives them in different places.

The mark [1] stands for this setting: in water, 20°C, bound that defines the group of not soluble / soluble zinc salts.
Setting [2] is: in water, temperature not given, bound that defines the group of soluble inorganic zinc salts.

In the case of Zinkacetat, the Löslichkeit under setting [1] is greater than 100 mg/L.
In the case of Zinkacetat-Dihydrat, where the note is “20°C”, the Löslichkeit was 430 g/I (20°C).
Zinkbenzoat: under setting [1], the Löslichkeit is greater than 100 mg/L.
As to Zinkbromid, the Löslichkeit is 820 g/I (25°C) (25°C) and greater than 100 mg/L under setting [2].
Regarding Zinkchlorid, the Löslichkeit (25°C) was 4320 g/I (25°C) and the Löslichkeit under setting [2] is greater than 100 mg/L.
On to Zinkcitrat, for which the Löslichkeit under setting [1] is less than 100 mg/L.
Turning to Zinkformiat, the Löslichkeit under setting [1] is greater than 100 mg/L.
With Zinkgluconat, the Löslichkeit reads like this: (20°C) 100 g/I (20°C); under setting [1], greater than 100 mg/L.
As for Zinkhydroxycarbonat, the Löslichkeit entry (result in words, 20°C) was “Fast unlöslich (20°C)”.
For Zinkiodid, the Löslichkeit (20°C) was 4500 g/I (20°C) and the Löslichkeit under setting [2] is greater than 100 mg/L.
Take Zinklactat: under setting [1], the Löslichkeit is listed as greater than 100 mg/L.
Regarding Zinknitrat, the Löslichkeit under setting [2] was greater than 100 mg/L.
In the case of Zinknitrat Hexahydrat, the Löslichkeit (20°C) was 1843 g/I (20°C).
Take Zinknitrat-Tetrahydrat: the Löslichkeit result (result in words, 20°C) is “Leicht löslich (20°C)”.
On to Zinkoleat, for which the Löslichkeit under setting [1] is recorded as less than 100 mg/L.
Consider Zinkoxalat, for which, under setting [1], the Löslichkeit is reported as less than 100 mg/L.
On to Zinkoxid, for which the Löslichkeit under setting [1] was less than 100 mg/L and the Löslichkeit entry (result in words, temperature not given) is on record as “Unlöslich”.
For the substance Zinksalz der p-Toluolsulfonsäure, under setting [1], the Löslichkeit is on record as greater than 100 mg/L.
For Zinkstearat, the Löslichkeit by setting is: (20°C) 0,9 mg/I (20°C); under setting [1], less than 100 mg/L.
For Zinksulfat, under setting [2], the Löslichkeit is listed as greater than 100 mg/L.
Take Zinksulfat-Heptahydat: the Löslichkeit (20°C) is 960 g/I (20°C).
Zinksulfat-Monohydrat: the Löslichkeit entry (20°C) was “∼350 g/I (20°C)”.
Regarding Zinktartrat, the Löslichkeit under setting [1] is on record as less than 100 mg/L.
Take Zinkvalerat: under setting [1], the Löslichkeit is greater than 100 mg/L.
As to Zinnlaureat, under setting [1], the Löslichkeit is on record as less than 100 mg/L.
